Experimental data from US20230098111A1, “COMPOSITIONS AND METHODS TO TREAT NEUROLOGICAL DISEASES” (University of Southern California, priority 2020, published 2023).
Entries after “also recorded” stand apart in the source; their conditions may differ.

Assays:
C9-FTD iNs = assay: Exosome secretion from iNs; assay type: cell-based, human; conditions: apilimod+GW4869
From the text: (A) […] of exosomes from apilimod-treated C9-FTD iNs. (B) Western blot of TSG101, TDP-43, and Neurofilament heavy chain levels in the exosome fraction secreted from control or C9-FTD iNs upon apilimod treatment. (C,D) Quantification of the exosome marker TSG101 (C) or TDP-43 (D) in the exosome fraction of control and C9-FTD iNs treated with DMSO, apilimod, or apilimod+GW4869. Kruskal-Wallis test for B, C. N=3 biological replicates per condition, one line per genotype. (E) Number of poly(GR)-GFP+ exosomes secreted from iNs expressing exogenous poly(GR)-GFP upon DMSO or apilimod treatment. N=4 biological replicates. Exosomes were labeled with CFSE-red dye to enable detection by FACS. Unpaired t-test.
To test this, exosome release from iNs upon PIKFYVE inhibition was examined. […] Thus, PIKFYVE inhibition induces the secretion of TDP-43 and C9ORF72 DPRs from iNs
(§1) PIKFYVE inhibition rescues neurodegeneration through secretory autophagy.

C9ORF72 FTD iNs = assay: Survival of C9ORF72 FTD iNs; assay type: cell-based, human; conditions: Apilimod+GW4869 (exocytosis blocker)
From the text: (A) Survival of C9ORF72 iNs with DMSO or apilimod. Log-rank test, 100 iNs per group. […] Log-rank test, 100 iNs per group. […] Mean+/−s.e.m. Kruskal-Wallis Test.
(A, B) Survival of C9-FTD iNs treated with DMSO and Apilimod (A) or Apilimod+GW4869 (exocytosis blocker) (B). Log-rank test. 100 iNs per group. iNs quantified from 3 independent replicates per group.
Mutations in MAPT cause FTD with tau aggregates. To determine if iNs from FTD patients display neurodegenerative phenotypes, an established method to generate cortical neurons from iPSCs by forced expression of NGN2 was used. 3 FTD patient iPSC lines harboring a MAPTV337M mutation and their CRISPR-edited isogenic controls from a published cell bank were utilized. Neurons from MAPT-mutant iPSCs display increased phosphorylated and oligomeric tau, similar to post-mortem patient tissue (FIG. 18A). […] Thus, MAPT iNs display key features of FTD with tau pathology.
Thus, C9ORF72 iNs provide a robust model of FTD.
as §1

TARDBP mice = assay: Motor deficits in TDP-43 (TARDBP) mice; assay type: in vivo
From the text: (A) Gait impairment, (B) Kyphosis, and (C) Tremor scoring in wild-type (WT) and TDP-43 homozygous mice treated with a negative control (NC) ASO or Pikfyve ASO at P0. Fore each assay, a score of 0 indicates no phenotype and 4 indicates the most severe phenotype.
To determine if ASO-mediated PIKFYVE suppression can rescue neurodegeneration in mouse models of ALS, two mouse models—a C9ORF72 model based on adeno-associated virus (AAV)-mediated overexpression of poly(GR) and a TDP-43 mouse mode were established. Both models develop neurodegeneration, motor impairment, and paralysis. […]

C9-ALS/FTD iMNs = assay: Exosome secretion from iMNs; assay type: cell-based, human; conditions: apilimod+GW4869
From the text: (A) Western blot of TSG101, TDP-43, and Neurofilament heavy chain levels in the exosome fraction secreted from control or C9-ALS/FTD iMNs upon apilimod treatment. […] Kruskal-Wallis test for B, C. N=3 biological replicates per condition, one line per genotype. (D) Number of poly(GR)-GFP+ exosomes secreted from iMNs expressing exogenous poly(GR)-GFP upon DMSO or apilimod treatment. N=4 biological replicates. Exosomes were labeled with CFSE-red dye to enable detection by FACS. Unpaired t-test.
Blocking PIKFYVE activity induces secretory autophagy. […] Thus, secretory autophagy maintains proteostasis and prevents neuronal death in TDP-43 mouse models. PIKFYVE inhibition blocks autophagosome-lysosome fusion by […] their ratio in endosomal, lysosomal and autophagosomal membranes. One might expect this to be detrimental to ALS iMNs, which can degenerate due to misfolded protein accumulation. However, inhibition of autophagosome-lysosome fusion using PIKFYVE inhibition or bafilomycin can activate secretory autophagy to jettison misfolded proteins from cells. […] To test this hypothesis, exosomal release in human iMNs upon PIKFYVE inhibition was examined. […] Thus, PIKFYVE inhibition induces the secretion of TDP-43 and C9ORF72 DPRs from iMNs.
Determining if PIKFYVE suppression rescues neurodegeneration through secretory autophagy. […] ASOs were designed targeting […]. It was confirmed that the ASOs suppressed RAB27A expression in iMNs.

[1] = target: T1, Neutral Sphingomyelinase 2 (Mus musculus, UniProt Q9JJY3); conditions: mice overexpressing TDP-43; cited from earlier work
T1 construct: In mice overexpressing TDP-43, neurons secrete exosomes containing phospho-TDP-43; host or cells: neurons of TDP-43-overexpressing mice (endogenous enzyme, in vivo)
T1 sequence (Q9JJY3 1-655): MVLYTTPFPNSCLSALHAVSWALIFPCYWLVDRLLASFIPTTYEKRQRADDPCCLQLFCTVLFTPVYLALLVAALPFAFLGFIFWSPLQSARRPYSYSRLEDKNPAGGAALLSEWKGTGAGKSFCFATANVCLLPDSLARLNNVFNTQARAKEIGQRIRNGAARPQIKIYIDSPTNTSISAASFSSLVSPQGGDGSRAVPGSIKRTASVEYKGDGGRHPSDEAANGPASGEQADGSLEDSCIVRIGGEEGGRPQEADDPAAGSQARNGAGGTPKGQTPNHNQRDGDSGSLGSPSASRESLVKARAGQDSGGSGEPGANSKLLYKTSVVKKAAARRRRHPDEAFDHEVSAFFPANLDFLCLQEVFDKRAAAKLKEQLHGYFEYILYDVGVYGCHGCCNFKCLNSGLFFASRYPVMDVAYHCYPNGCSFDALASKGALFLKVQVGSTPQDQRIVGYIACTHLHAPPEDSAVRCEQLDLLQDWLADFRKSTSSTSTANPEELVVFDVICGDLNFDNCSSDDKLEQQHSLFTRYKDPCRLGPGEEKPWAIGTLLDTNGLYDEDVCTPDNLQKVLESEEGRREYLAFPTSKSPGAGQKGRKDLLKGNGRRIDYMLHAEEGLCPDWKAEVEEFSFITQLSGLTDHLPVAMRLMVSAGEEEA

sporadic ALS iMNs = assay: Survival of sporadic ALS iMNs
From the text: (A) Survival of control (CTRL) and C9ORF72 ALS/FTD patient (C9-ALS) iMNs with a 12-hour pulse treatment of excess glutamate shown for each individual line separately. iMNs quantified from 3 independent iMN conversions per line. (B-D) Immunofluorescence analysis of total TDP-43 (B) and quantification of the ratio of nuclear to cytoplasmic TDP-43 in control, C9-ALS (C), or sporadic ALS (D) iMNs. MNs from 2 controls and 2 C9-ALS patients (C) or 4 sporadic ALS patients (D) were quantified. n=30 (controls), 30 (C9-ALS/FTD), or 36 (sporadic) iMNs per line per condition from 2 biologically independent iMN conversions of 2 control, 2 C9-ALS/FTD, or 4 sporadic ALS lines were quantified. Each gray circle represents a single iMN. Median±interquartile range. Unpaired Mann-Whitney test. Scale bars: 5 μm. Dotted lines outline the nucleus and cell body. (E) Survival of control and sporadic iMNs with glutamate treatment. iMNs quantified from 3 independent iMN conversions per line. For iMN survival experiments, significance was measured by 2-sided log-rank test using the entire survival time course.
(B) Survival of C9-ALS/FTD iMNs with DMSO or apilimod. (C) Survival of sporadic ALS induced motor neurons (iMNs) with DMSO or apilimod. (D) Survival of C9-ALS/FTD iMNs with a scrambled ASO or PIKFYVE ASOs, 100 iMNs per group. […] Unpaired t-test. iMN survival experiments analyzed by log-rank test. […]

TDP-43 mutant mice = assay: TDP-43 pathology, neurodegeneration and survival in TDP-43 mice; assay type: in vivo
From the text: (A, B) Images (A) and quantification (B) of phosphorylated TDP-43 (pTDP43)+ punctae in spinal motor neurons of day 21 wild-type or TDP-43 mutant mice treated with a negative control (NC ASO) or Pikfyve ASO. Each data point represents one mouse, mean+/−s.e.m., one-way ANOVA. In (A), each arrow marks a pTDP-43+ puncta. […] (C, D) Images (C) and quantification (D) of nuclear and cytoplasmic TDP-43 intensity in spinal motor neurons of day 21 wild-type or TDP-43 mutant mice treated with a negative control (NC ASO) or Pikfyve ASO. Each data point represents one mouse, mean+/−s.e.m., one-way ANOVA. […] (E, F) Images (E) and quantification (F) of the average number of Neurotrace (Nissl)+ spinal motor neurons per ventral horn per mouse. Each data point represents one mouse, mean, one-way ANOVA. In (E), orange dotted lines outline the ventral horn area quantified and white dotted lines outline the spinal cord. (G) Survival of TDP-43 mutant mice treated with a negative control (NC ASO) or Pikfyve ASO. Log-rank test. *p<0.05, **p<0.01, ***p<0.001, ****p<0.0001.

[2] = system: C9ORF72 dipeptide repeat proteins; assay: DPR levels in C9ORF72-BAC mice; assay type: in vivo; conditions: ASO injected into hippocampus, 7 days (12 days in FIG. 8-10)
Experimental: DRP aggregates (Poly(GR) red) accumulate in the cells (white outline) of C9-BAC mice.
(§2) (A) Mass spectrometry analysis of Optineurin (OPTN) levels in the cerebrospinal fluide (CSF) of mice 2 hours after direct intracerebroventral injection of a vehicle control or apilimod. n=3 mice per group. The ratio of Optineurin in the CSF of apilimod:vehicle-injected mice is shown. (B) Poly(GR)+ DPR punctae in wild-type or C9ORF72 mice treated with intracerebroventricular injection of apilimod for 48 hours. Mean+/−s.e.m. Data points are individual neurons taken across 3 mice per group. One-way ANOVA. […] Unpaired t-test. (D) Pikfyve qRT-PCR of whole brain. n=3 mice per group at postnatal day 7. Unpaired t-test. (E) Gait impairment scoring in wild-type (WT) and TDP-43 homozygous mice treated with a negative control (NC) ASO or Pikfyve ASO at postnatal day 1. Mean+/−s.e.m. Unpaired t-test at each time point between the negative control and Pikfyve ASO conditions for TDP-43 mice. A score of 0 indicates no phenotype and 4 indicates the most severe phenotype. (F) Vehicle or GW4869 were delivered by intraperitoneal injection every 48 h starting from day 6 in negative control and Pikfyve ASO-treated mice. Mean+/−s.e.m. One-way ANOVA at each time point between the four conditions. *p<0.05, **p<0.01, ***p<0.001, ****p<0.0001.
PIKFYVE inhibition rescues neurodegeneration in vivo. […] Since TARDBP overexpressing mice show motor deficits and neurodegeneration, we used TARDBP mice to test the efficacy of Pikfyve suppression.
(§3) Determining whether PIKfyve-targeting ASOs can reverse ALS disease progression in vivo. To determine if PIKfyve-targeting ASOs can reverse ALS disease processes in vivo, can PIKfyve ASOs lower levels of C9ORF72 dipeptide repeat proteins in mice. Dipeptide repeat proteins are generated from the C9ORF72 repeat expansion by repeat-associated non-AUG-dependent translation and are neurotoxic.
(§4) To determine if ASO-mediated Pikfyve suppression lowers C9ORF72 poly(GR) levels in mice, Pikfyve ASOs were injected into the hippocampus of adult C9ORF72-BAC mice, which harbor a C9ORF72 repeat expanded transgene and accumulate poly(GR)+ aggregates in hippocampal neurons.

Pikfyve [3] = assay: Pikfyve qRT-PCR of whole brain after intracerebroventricular ASO; assay type: in vivo, mice; conditions: intracerebroventricular ASO injection at P0/P1, brain at P7
Experimental: as §2
(A) Gait impairment, (B) Kyphosis, and (C) Tremor scoring in wild-type (WT) and TDP-43 homozygous mice treated with a negative control (NC) ASO or Pikfyve ASO at P0. […]

Pikfyve [4] = assay: Pikfyve expression in hippocampus after ASO injection; assay type: in vivo, mice; conditions: direct ASO injection into hippocampus, 7 days
From the text: as §3, §4

Compound: O=C(/C=C/c1ccc(/C=C/C(=O)Nc2ccc(C3=NCCN3)cc2)cc1)Nc1ccc(C2=NCCN2)cc1 [GW4869]
- apilimod-induced release of exosomes from C9ORF72 iNs with GW4869 (C9-FTD iNs): impaired apilimod-induced release of exosomes
- apilimod rescue of C9ORF72 iN survival in presence of GW4869 (C9ORF72 FTD iNs): blocked apilimod's ability to rescue
- motor rescue by PIKFYVE ASOs in presence of GW4869 (TARDBP mice; GW4869 intraperitoneal every 48 h from day 6): blocked motor rescue by PIKFYVE ASOs
- apilimod-induced release of exosomes containing TSG101 and TDP-43 from ALS iMNs with GW4869 (C9-ALS/FTD iMNs): blocked apilimod-induced release of exosomes
- TDP-43 mouse survival [1]: decreased TDP-43 mouse survival
- neurodegeneration [1]: accelerated neurodegeneration
- neuronal cytoplasmic TDP-43 aggregates [1]: increased neuronal accumulation of cytoplasmic TDP-43 aggregates

Compound: Nc1ccc(C(=O)Nc2cccc(-c3nc(N4CCOCC4)c4oc5ncccc5c4n3)c2)cn1 [YM201636]
- sporadic ALS iMN survival (sporadic ALS iMNs): rescued C9ORF72 and sporadic ALS

Compound: GGTGCATGCTCGGAGGTCTC (chemistry not given here) [Pikfyve ASO, mouse Pikfyve ASO gapmer for in vivo experiments, 5-10-5 2′-MOE, phosphorothioate]
- survival of TDP-43 mutant mice (TDP-43 mutant mice; NC ASO vs Pikfyve ASO): rescues
- neurodegeneration in TDP-43 mice (TDP-43 mutant mice; Nissl+ spinal motor neurons per ventral horn): rescues
- TDP-43 pathology in TDP-43 mice (TDP-43 mutant mice; spinal motor neurons, day 21, NC ASO vs Pikfyve ASO): rescues
- DPR / poly(GR)+ aggregates in hippocampus of C9ORF72-BAC mice [2]: significantly reduced; also recorded: significantly less DRP aggregates
- DPR / poly(GR)+ aggregates in hippocampus of C9ORF72-BAC mice ([2]; listed as PIKfyve ASO): significantly lowered
- DPR / poly(GR)+ aggregates in hippocampus of C9ORF72-BAC mice ([2]; listed as Pikfyve-suppressing ASO): also lowered DPRs
- Pikfyve mRNA levels (whole brain qRT-PCR) (Pikfyve [3]): reduced Pikfyve mRNA levels
- Pikfyve mRNA levels (whole brain qRT-PCR) (Pikfyve [3]; listed as Pikfyve-targeting ASO): significantly decreased Pikfyve expression
- motor deficits in TARDBP mice (TARDBP mice; intracerebroventricular injection of Pikfyve ASO): rescued motor deficits
- Pikfyve expression in hippocampus (Pikfyve [4]): significantly reduced
- Pikfyve expression in hippocampus (Pikfyve [4]; listed as PIKfyve ASO): significantly lowered
